# Target: T1, Human Recombinant Matriptase 2 (Homo sapiens, UniProt Q8IU80)
# T1 construct: made in house
# T1 sequence (Q8IU80 1-811): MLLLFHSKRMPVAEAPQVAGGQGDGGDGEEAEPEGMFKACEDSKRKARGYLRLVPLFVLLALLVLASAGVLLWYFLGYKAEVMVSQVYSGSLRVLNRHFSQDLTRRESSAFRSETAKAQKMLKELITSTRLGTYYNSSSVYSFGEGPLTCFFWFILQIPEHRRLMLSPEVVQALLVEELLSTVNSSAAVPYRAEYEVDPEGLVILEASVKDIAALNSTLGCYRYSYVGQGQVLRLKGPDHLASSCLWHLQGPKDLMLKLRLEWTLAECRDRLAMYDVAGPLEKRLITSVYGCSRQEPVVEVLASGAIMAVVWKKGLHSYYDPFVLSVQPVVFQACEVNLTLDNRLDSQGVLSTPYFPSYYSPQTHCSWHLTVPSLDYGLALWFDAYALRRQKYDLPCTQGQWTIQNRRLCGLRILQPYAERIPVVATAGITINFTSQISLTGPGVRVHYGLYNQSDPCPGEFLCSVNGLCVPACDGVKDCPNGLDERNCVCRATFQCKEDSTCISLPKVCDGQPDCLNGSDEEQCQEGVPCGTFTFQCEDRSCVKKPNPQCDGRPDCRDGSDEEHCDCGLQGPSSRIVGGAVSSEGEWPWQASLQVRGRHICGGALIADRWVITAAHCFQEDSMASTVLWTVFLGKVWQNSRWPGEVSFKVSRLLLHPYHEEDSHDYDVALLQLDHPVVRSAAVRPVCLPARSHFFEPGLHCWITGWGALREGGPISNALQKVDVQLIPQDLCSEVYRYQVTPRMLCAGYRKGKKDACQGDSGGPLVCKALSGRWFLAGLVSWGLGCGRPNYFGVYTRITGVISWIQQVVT
# Assay: Matriptase 2 inhibition, fluorescence based assay (Method I)
# Assay type: biochemical
# Settings: Table A; Ki of Matriptase-2; read-out: Mat-2 Ki
# Description: • Method I: Test compounds were evaluated for their potential to inhibit Human Recombinant Matriptase 2 (in-house) using fluorescence based assay. The concentration of Recombinant Matriptase 2 and the substrate used in the assay was: 3.5 nM (In-house Matriptase 2) and 62 μM (Boc-Gln-Ala-Arg-7-amido-4-methyl coumarin hydrobromide −Cat log: I-1550 from Bachem) respectively. The assay buffer used was 50 mM TRIS pH 7.5, 150 mM NaCl, 0.01% Gelatin TCL059 Himedia). The assay was performed using 384 well black flat bottom plate from grenier (Cat log: 781076) at 25° C. The enzyme and compound were preincubated for 30 mins, the plate was read at 60 mins after substrate addition at wavelength Ex: 360/Em: 480 nm. The final assay volume was 20 μl. A stock solution of compounds was initially prepared in DMSO and appropriate dilutions were made and IC50 was determined for all the compounds (final DMSO conc in the assay was 1%). All the measurements were carried out using the Spectramax M5, Molecular devices.
# To determine Ki values, dose response curves were generated by plotting percentage inhibition as a function of inhibitor concentration and the data was fitted to sigmoidal non-linear regression equation (variable slope) using Graph Pad prism software V8.
row,Ki,Compound
1,≤ 100 nM,"COCCN1CC[C@H](COC(=O)c2cc3ccc(CN)nc3n2Cc2cc(NS(=O)(=O)Cc3ccccc3)cc3ccccc23)C1 (racemic) [Compound 138, rac-[(3R)-1-(2-methoxy-ethyl)pyrrolidin-3-yl]-methyl 6-(aminometh-yl)-1-{[3-(phenylmeth-anesulfonamido)naph-thalen-1-yl]methyl}-1H-pyrrolo[2,3-b]pyridine-2-carboxylate]"
2,≤ 100 nM,"C[C@@H](CCOC(=O)c1cc2ccc(CN)nc2n1Cc1cc(NS(=O)(=O)Cc2ccccc2)cc2ccccc12)N1CCOCC1 (racemic) [Compound 143, rac-(3R)-3-(morpholin-4-yl)butyl 6-(aminometh-yl)-1-{[3-(phenylmeth-anesulfonamido)naph-thalen-1-yl]methyl}-1H-pyrrolo-[2,3-b]pyridine-2-carboxylate]"
3,≤ 100 nM,"COCCN1CCC[C@H](COC(=O)c2cc3ccc(CN)nc3n2Cc2cc(NS(=O)(=O)Cc3ccccc3)cc3ccccc23)C1 (racemic) [Compound 144, rac-[(3R)-1-(2-methoxy-ethyl)piperidin-3-yl]-methyl 6-(aminometh-yl)-1-(phenylmethane-sulfonamido)naphthalen-1-yl]methyl}-1H-pyrrolo-[2,3-b]pyridine-2-car-boxylate]"
4,≤ 100 nM,"C[C@H](COC(=O)c1cc2ccc(CN)nc2n1Cc1cc(NS(=O)(=O)Cc2ccccc2)cc2ccccc12)CN1CCOCC1 (racemic) [Compound 145, rac-(2R)-2-methyl-3-(morpholin-4-yl)propyl 6-(aminomethyl)-1-{[3-(phenylmethanesulfon-amido)naphthalen-1-yl]-methyl}-1H-pyrrolo[2,3-b]pyridine-2-carboxylate]"
5,≤ 100 nM,"COCCN1CCC[C@H](COC(=O)c2cc3ccc(CN)nc3n2Cc2cc(NS(=O)(=O)Cc3ccsc3)cc3ccccc23)C1 (racemic) [Compound 166, [1-(2-methoxyethyl)-piperidin-3-yl]methyl 6-(aminomethyl)-1-({3-[(thiophen-3-yl)methane-sulfonamido]naphthalen-1-yl}methyl)-1H-pyr-rolo[2,3-b]pyridine-2-carboxylate]"
6,≤ 100 nM,"COCCN1CC[C@H](COC(=O)c2cc3ccc(CN)nc3n2Cc2cc(NS(=O)(=O)Cc3ccsc3)cc3ccccc23)C1 (racemic) [Compound 172, [1-(2-methoxyethyl)-pyrrolidin-3-yl]methyl 6-(aminomethyl)-1-({3-[(thiophen-3-yl)methane-sulfonamido]naphthalen-1-yl}methyl)-1H-pyr-rolo[2,3-b]pyridine-2-carboxylate]"
7,≤ 100 nM,"COCCN1CCCC(COC(=O)c2cc3ccc(CN)nc3n2Cc2cc(NS(=O)(=O)Cc3c(C)cccc3C)cc3ccccc23)C1 (racemic) [Compound 193, [1-(2-methoxyethyl)-piperidin-3-yl]methyl 6-(aminomethyl)-1-({3-[(2,6-dimethylphenyl)-methanesulfonamido]-naphthalen-1-yl}meth-yl)-1H-pyrrolo[2,3-b]-pyridine-2-carboxylate]"
8,≤ 100 nM,"COCCN1CC[C@H](COC(=O)c2cc3ccc(CN)nc3n2Cc2cc(NS(=O)(=O)Cc3c(C)cccc3C)cc3ccccc23)C1 (racemic) [Compound 194, [1-(2-methoxyethyl)pyr-rolidin-3-yl]methyl 6-(aminomethyl)-1-({3-[(2,6-dimethylphenyl)-methanesulfonamido]-naphthalen-1-yl}meth-yl)-1H-pyrrolo[2,3-b]-pyridine-2-carboxylate]"

# Same assay, conditions: Table A; Ki of Matriptase-2 given as class symbols; read-out: Mat-2 Ki
row,Compound,Ki
1,"NCc1ccc2cc(C(=O)O)n(Cc3cc(NS(=O)(=O)CC4CNCCO4)cc4ccccc34)c2n1 (racemic) [Compound 224, 6-(aminomethyl)-1-({3-[(morpholin-2-yl)-methanesulfonamido]-naphthalen-1-yl}meth-yl)-1H-pyrrolo[2,3-b]-pyridine-2-carboxylic acid]",100 to 500 nM
2,"C[C@@H](C(=O)N(C)C)S(=O)(=O)Nc1cc(Cn2c(C(=O)O)cc3ccc(CN)nc32)c2ccccc2c1 (racemic) [Compound 255, rac-6-(aminomethyl)-1-({3-(dimethylcarbam-oyl)ethanesulfonamido]-naphthalen-1-yl}methyl)-1H-pyrrolo[2,3-b]pyr-idine-2-carboxylic acid]",≤ 100 nM
3,"NCc1ccc2cc(C(=O)O)n(Cc3cc(NS(=O)(=O)C[C@H]4CCCO4)cc4ccccc34)c2n1 (racemic) [Compound 257, rac-6-(aminomethyl)-1-[(3-{[(2R)-oxolan-2-yl]methanesulfonamido}-naphthalen-1-yl)methyl]-1H-pyrrolo[2,3-b]pyr-idine-2-carboxylic acid]",100 to 500 nM
4,"CC(C)(C)OC(=O)N1CCOC[C@@H]1CS(=O)(=O)Nc1cc(Cn2c(C(=O)O)cc3ccc(CN)nc32)c2ccccc2c1 (racemic) [Compound 277, 6-(aminomethyl)-1-{[3-({4-[(tert-butoxy)car-bonyl]morpholin-3-yl}-methanesulfonamido)-naphthalen-1-yl]methyl}-1H-pyrrolo[2,3-b]pyr-idine-2-carboxylic acid]",500 to 3000 nM

# Now from value to molecule:
row,Ki,Compound
1,100 to 500 nM,"NCc1ccc2cc(C(=O)O)n(Cc3cc(NS(=O)(=O)C[C@H]4COCCN4)cc4ccccc34)c2n1 (racemic) [Compound 261, 6-(aminomethyl)-1-({3-[(morpholin-3-l)methane-sulfonamido]naphthalen-1-yl}methyl)-1H-pyr-rolo[2,3-b]pyridine-2-carboxylic acid]"
2,100 to 500 nM,"NCc1ccc2cc(C(=O)O)n(Cc3cc(NS(=O)(=O)C[C@H]4CCOC4)cc4ccccc34)c2n1 (racemic) [Compound 262, rac-6-(aminomethyl)-1-[(3-{[(3R)-oxolan-3-yl]-methanesulfonamido}-naphthalen-1-yl)methyl]-1H-pyrrolo[2,3-b]pyr-idine-2-carboxylic acid]"
3,100 to 500 nM,"CC(=O)O[C@H](C)OC(=O)c1cc2ccc(CN)nc2n1Cc1cc(NS(=O)(=O)CC2CCNCC2)cc2ccccc12 (racemic) [Compound 263, 1-[6-(aminomethyl)-1-({3-[(piperidin-4-yl)-methanesulfonamido]-naphthlen-1-yl}methyl)-1H-pyrrolo[2,3-b]pyr-idine-2-carbonyloxy]-ethyl acetate]"
4,500 to 3000 nM,"NCc1ccc2cc(C(=O)O)n(Cc3cc(NS(=O)(=O)[C@H]4CCOC4)cc4ccccc34)c2n1 (racemic) [Compound 273, rac-6-(aminomethyl)-1-({3-[(3R)-oxolane-3-sulfonamido]naphthalen-1-yl}methyl)-1H-pyr-rolo[2,3-b]pyridine-2-carboxylic acid]"
5,500 to 3000 nM,"CCN1C[C@@H](S(=O)(=O)Nc2cc(Cn3c(C(=O)O)cc4ccc(CN)nc43)c3ccccc3c2)CC1=O (racemic) [Compound 282, rac-6-(aminomethyl)-1-({3-[(3R)-1-ethyl-5-oxopyrrolidine-3-sulfon-amido]naphthalen-1-yl}-methyl)-1H-pyrrolo[2,3-b]pyridine-2-carboxylic acid]"
6,500 to 3000 nM,"C[C@H]1CCC(C)(C)N1C(=O)Nc1cc(Cn2c(C(=O)O)cc3ccc(CN)nc32)c2ccccc2c1 (racemic) [Compound 302, rac-6-(aminomethyl)-1-[(3-{[(SR)-2,2,5-trimeth-ylpyrrolidine-1-carbon-yl]amino}naphthalen-1-yl)methyl]-1H-pyrrolo-[2,3-b]pyridine-2-carbox-ylic acid]"
